Values after ≈ are worked out from the molar mass of the structure shown. Where two headings read alike, the source gives them in different places.
What was measured:
Assay in all cases: MIC, broth microdilution
[1] = system: M. catarrhalis; format: cell-based, Moraxella catarrhalis; conditions: M. catarrhalis 13L332, Ery-S
Description: MICs were determined by the microdilution method according to the Clinical and Laboratory Standards Institute guidelines. Briefly, the stock solution of compounds and the reference antibiotics were diluted 2-fold in sterile 96-well plates with cation-adjusted Mueller-Hinton broth, and mixed with CAMHB-containing bacteria to give a final inoculum of 5 × 10^5 CFU/mL for broth microdilution experiments. […] Finally, the 96-well plates were incubated at 37 °C for 16–20 h to observe and record the results. The lowest concentration at which no bacterial growth could be observed visually was identified as the MICs of the compounds. The assay for MICs was replicated at least three times.

[2] = system: S. pyogenes; format: cell-based, Streptococcus pyogenes; conditions: S. pyogenes 12-206, c-ermTR
Description: (§1) MICs were determined by the microdilution method according to the Clinical and Laboratory Standards Institute guidelines. […] Finally, the 96-well plates were incubated at 37 °C for 16–20 h to observe and record the results. […] The assay for MICs was replicated at least three times.

[3] = system: S. pneumoniae; format: cell-based, Streptococcus pneumoniae
Description: as §1

[4] = system: H. influenzae; format: cell-based, Haemophilus influenzae
Description: as §1

[5] = Moraxella catarrhalis, read-out: MIC
[6] = Streptococcus pyogenes, read-out: MIC
[7] = Streptococcus pneumoniae, ATCC49619, S. pneumoniae ATCC49619, Ery-S, read-out: MIC
[8] = Streptococcus pneumoniae, S. pneumoniae 05O173, c-ermB, mef, read-out: MIC
[9] = Streptococcus pneumoniae, S. pneumoniae 07P390, c-ermB, read-out: MIC
[10] = Haemophilus influenzae, ATCC49247, H. influenzae ATCC49247, Azi-S, read-out: MIC

| SMILES | MIC [1, 5] | MIC [2, 6] | MIC [3, 7] | MIC [3, 8] | MIC [3, 9] | MIC [4, 10] | MIC [1] | MIC [2] | MIC ([3]; S. pneumoniae 05O173, c-ermB, mef) | MIC ([3]; S. pneumoniae 07P390, c-ermB) | MIC ([3]; S. pneumoniae ATCC49619, Ery-S) | MIC ([4]; H. influenzae ATCC49247, Azi-S) |
| --- | --- | --- | --- | --- | --- | --- | --- | --- | --- | --- | --- | --- |
| CC[C@H]1OC(=O)[C@H](C)[C@@H](OC(=O)NCCCCCCCC#Cc2ccc3c(=O)c(C(=O)O)cn(C)c3c2)[C@H](C)[C@@H](O[C@@H]2O[C@H](C)C[C@H](N(C)C)[C@H]2O)[C@](C)(OC)C[C@@H](C)C(=O)[C@H](C)[C@H]2NC(=O)O[C@@]21C [89g] | 1 µg/mL (≈ 1.02 µM) | 1 µg/mL (≈ 1.02 µM) | ≤ 0.008 µg/mL | 16 µg/mL (≈ 16.3 µM) | 0.25 µg/mL (≈ 0.255 µM) | 8 µg/mL (≈ 8.15 µM) | – | – | – | – | – | – |
| CC[C@H]1OC(=O)[C@H](C)[C@@H](OC(=O)NCCCCCCCCc2ccc3c(=O)c(C(=O)O)cn(C)c3c2)[C@H](C)[C@@H](O[C@@H]2O[C@H](C)C[C@H](N(C)C)[C@H]2O)[C@](C)(OC)C[C@@H](C)C(=O)[C@H](C)[C@H]2NC(=O)O[C@@]21C [90g] | – | – | – | – | – | – | 2 µg/mL (≈ 2.06 µM) | 0.12 µg/mL (≈ 0.124 µM) | 8 µg/mL (≈ 8.24 µM) | 0.03 µg/mL (≈ 0.0309 µM) | ≤ 0.008 µg/mL | 4 µg/mL (≈ 4.12 µM) |
| CC[C@H]1OC(=O)[C@H](C)[C@@H](OC(=O)NCCCOCCC#Cc2ccc3c(=O)c(C(=O)O)cn(C4CC4)c3c2)[C@H](C)[C@@H](O[C@@H]2O[C@H](C)C[C@H](N(C)C)[C@H]2O)[C@](C)(OC)C[C@@H](C)C(=O)[C@H](C)[C@H]2NC(=O)O[C@@]21C [95c] | 0.5 µg/mL (≈ 0.502 µM) | 0.5 µg/mL (≈ 0.502 µM) | 0.03 µg/mL (≈ 0.0301 µM) | 4 µg/mL (≈ 4.02 µM) | 0.25 µg/mL (≈ 0.251 µM) | 2 µg/mL (≈ 2.01 µM) | – | – | – | – | – | – |

Continued by falling MIC [1, 5], values first:

| MIC [1, 5] | MIC [2, 6] | MIC [3, 7] | MIC [3, 8] | MIC [3, 9] | MIC [4, 10] | MIC [1] | MIC [2] | MIC ([3]; S. pneumoniae 05O173, c-ermB, mef) | MIC ([3]; S. pneumoniae 07P390, c-ermB) | MIC ([3]; S. pneumoniae ATCC49619, Ery-S) | MIC ([4]; H. influenzae ATCC49247, Azi-S) | SMILES |
| --- | --- | --- | --- | --- | --- | --- | --- | --- | --- | --- | --- | --- |
| 0.5 µg/mL (≈ 0.509 µM) | 0.5 µg/mL (≈ 0.509 µM) | ≤ 0.008 µg/mL | 4 µg/mL (≈ 4.07 µM) | 0.12 µg/mL (≈ 0.122 µM) | – | – | – | – | – | – | – | CC[C@H]1OC(=O)[C@H](C)[C@@H](OC(=O)NCCCOCCC#Cc2ccc3c(=O)c(C(=O)O)cn(CC)c3c2)[C@H](C)[C@@H](O[C@@H]2O[C@H](C)C[C@H](N(C)C)[C@H]2O)[C@](C)(OC)C[C@@H](C)C(=O)[C@H](C)[C@H]2NC(=O)O[C@@]21C [95f] |
| 0.5 µg/mL (≈ 0.509 µM) | 0.5 µg/mL (≈ 0.509 µM) | ≤ 0.008 µg/mL | 8 µg/mL (≈ 8.14 µM) | 0.25 µg/mL (≈ 0.254 µM) | 2 µg/mL (≈ 2.03 µM) | – | – | – | – | – | – | CC[C@H]1OC(=O)[C@H](C)[C@@H](OC(=O)NCCCCOCCC#Cc2ccc3c(=O)c(C(=O)O)cn(C)c3c2)[C@H](C)[C@@H](O[C@@H]2O[C@H](C)C[C@H](N(C)C)[C@H]2O)[C@](C)(OC)C[C@@H](C)C(=O)[C@H](C)[C@H]2NC(=O)O[C@@]21C [96g] |
